Results as given in patent US12161650B2, “Pharmaceutical compositions comprising a ryanodine receptor modulator and uses thereof” (priority 2021, dated 2024).
Where two headings read alike, the source gives them in different places.

Legend:
[1] = Phase 1 clinical trial, Part I single ascending doses, plasma pharmacokinetics; format: in vivo, human (healthy male volunteers); conditions: for Tmax / AUC(0-t) / Cmax / AUC / half-life: male, human, plasma; for AUC(0-t) / Cmax: Day 1, geom. mean; for AUC: Day 1, zero to infinity; for AUC / half-life: geom. mean; for half-life: read-out: t1/2, z (converted)
Experimental: (§1) A Phase 1, randomized, double-blind, placebo-controlled clinical trial was performed to assess the safety and pharmacokinetics (PK) of Compound I after single, escalating, and repeated oral doses in health male volunteers.
4-[(7-methoxy-2,3-dihydro-1,4-benzothiazepin-4(5H)yl)methyl]benzoic acid hemi-fumarate (Compound I) was administered in a gastro-resistant tablet according to Example 1. The formulation contained 20 mg, 40 mg, or 200 mg Compound I (based on the mass of 4-[(7-methoxy-2,3-dihydro-1,4-benzothiazepin-4(5H)yl)methyl]benzoic acid). Placebo tablet according to Example 4 was used as comparator.
[…] Forty subjects completed part I: 30 active (6 per cohort) and 10 placebo.
In Part I, blood samples were collected from each participant as follows: at pre-dose, then 0.25, 0.5, 1, 1.5, 2, 3, 4, 5, 6, 8, 10, 12, 16, 24, 36, 48, 60, 72, and 96 hours after dosing.
The area under the plasma concentration-time curve was calculated using a combined linear and logarithmic trapezoidal rule. The interpolation was linear in the constant and ascending parts of the plasma concentration-time profiles. The interpolation was logarithmic in the descending parts.
For Part I, to assess the dose effect on the PK of Compound I, the mean AUClast, and Cmax for each dose were calculated and were plotted by dose.
For each group and treatment, descriptive statistics (N, arithmetic mean, standard deviation, minimum, median, maximum, coefficient of variation, geometric mean, and geometric CV, as appropriate) were calculated for the concentrations and pharmacokinetic parameters of Compound I.
Plasma and muscle samples were analyzed by LC-MS/MS method.

[2] = Phase 1 clinical trial, safety of single and repeated oral doses; format: in vivo, human (healthy male volunteers)
Experimental: as §1
(§2) The primary objective was to assess the safety of escalating single oral doses of Compound I compared with placebo in healthy male volunteers. The secondary objective was to measure plasma pharmacokinetic (PK) parameters of Compound I.
as §2, with “repeated” for “single”, “I over 14 days” for “I”, “I and to assess the concentration of Compound I in quadriceps muscle.” for “I.”

For COc1ccc2c(c1)CN(Cc1ccc(C(=O)O)cc1)CCS2.O=C(O)/C=C/C(=O)O [Compound I, 4-[(7-methoxy-2,3-dihydro-1,4-benzothiazepin-4(5H)yl)methyl]benzoic acid hemifumarate], the Tmax ([1]; single oral administration at 20 to 400 mg, across doses, read-out: median Tmax) was 3 to 4.5 h, the AUC(0-t) ([1]; single oral dose 40 mg (Treatment A, n = 6)) was 68.7 µg·h/mL and the Cmax ([1]; single oral dose 40 mg) was 3940 ng/mL. For the same molecule, the Tmax ([1]; single oral dose 40 mg, Day 1, median, read-out: tmax) was 3 h, the AUC ([1]; single oral dose 40 mg) was 71.7 µg·h/mL and the half-life ([1]; single oral dose 40 mg) was 1250 min. The AUC(0-t) ([1]; single oral dose 80 mg (Treatment B, n = 6)) was 153 µg·h/mL, the Cmax ([1]; single oral dose 80 mg) was 6880 ng/mL and the Tmax ([1]; single oral dose 80 mg, Day 1, median, read-out: tmax) was 3 h. For the same molecule, the AUC ([1]; single oral dose 80 mg) was 163 µg·h/mL, the half-life ([1]; single oral dose 80 mg) was 1360 min and the AUC(0-t) ([1]; single oral dose 160 mg (Treatment C, n = 6)) was 304 µg·h/mL. It also gave a Cmax ([1]; single oral dose 160 mg) of 15500 ng/mL, a Tmax ([1]; single oral dose 160 mg, Day 1, median, read-out: tmax) of 3 h and an AUC ([1]; single oral dose 160 mg) of 312 µg·h/mL. For the same molecule, the half-life ([1]; single oral dose 160 mg) was 1050 min, the AUC(0-t) ([1]; single oral dose 240 mg (Treatment D, n = 6)) was 451 µg·h/mL and the Cmax ([1]; single oral dose 240 mg) was 24500 ng/mL. The Tmax ([1]; single oral dose 240 mg, Day 1, median, read-out: tmax) was 4.5 h, the AUC ([1]; single oral dose 240 mg) was 464 µg·h/mL and the half-life ([1]; single oral dose 240 mg) was 1060 min. The AUC(0-t) ([1]; single oral dose 400 mg (Treatment E, n = 6)) was 656 µg·h/mL, the Cmax ([1]; single oral dose 400 mg) was 35100 ng/mL and the Tmax ([1]; single oral dose 400 mg, Day 1, median, read-out: tmax) was 3.5 h. For the same molecule, the AUC ([1]; single oral dose 400 mg) was 708 µg·h/mL, the half-life ([1]; single oral dose 400 mg) was 1120 min and the Tlag ([1]; single oral administration at 20 to 400 mg) was “less than 2 hours”. For the same molecule, the Absorption ([1]; single oral administration of 20, 40, 80, 160, 240, and 400 mg, after a lag time) was “rapid absorption was observed”, the “Non-linearity with the dose” value ([1]; single oral doses) was “No evidence of non-linearity with the dose was observed” and the “Dose proportionality with regard to AUClast and Cmax” value ([1]; single oral doses, graphical inspections) was “dose proportionality”. The Tolerability ([2]; at the doses and dose regimens tested) was “well tolerated” and the Serious adverse events ([2]; single doses up to 400 mg and repeated doses up to 240 mg/d for 14 days) was “No serious adverse events were reported”.
